# Test results reported in patent US4450269A, “Mono-5-substituted-3-chloro-4H-1,2,6-thiadiazin-4-one antifungal agents” (FMC Corporation, priority 1980, dated 1984).
# Where two headings read alike, the source gives them in different places.
# Columns and labels:
# Pyricularia oryzae [1] = assay type: cell-based; details: PO, 48 hours
# Fusarium solani = assay: Mycelial growth test; assay type: cell-based; details: Fusarium solani, 72 h; for inhibition at 5 ppm / inhibition at 10 ppm / inhibition at 20 ppm: PS, 72 hours, read-out: Percent Fungus Growth Inhibition; for inhibition at 40 ppm: read-out: Percent Fungus Growth Inhibition, PS, 40 ppm, 72 hours
# Pyricularia oryzae [2] = assay: whole plant or invertebrate; assay type: in vivo; details: Pyricularia oryzae, foliar, 24 h, read-out: Percent Disease Control, curative, rice blast, 150 ppm, 24 hours after inoculation
SMILES,Spore Germination Rating (Pyricularia oryzae [1]; 1.0 ppm),Spore Germination Rating (Pyricularia oryzae [1]; 2.5 ppm),Spore Germination Rating (Pyricularia oryzae [1]; 10 ppm),Spore Germination Rating (Pyricularia oryzae [1]; 40 ppm),inhibition at 5 ppm (Fusarium solani) [%],inhibition at 10 ppm (Fusarium solani) [%],inhibition at 20 ppm (Fusarium solani) [%],inhibition at 40 ppm (Fusarium solani) [%],pest or weed control at 150 ppm (Pyricularia oryzae [2]) [%]
"CCOC(=O)c1ccc(Oc2nsnc(Cl)c2=O)cc1 [Compound 7, 3-chloro-5-(4-ethoxycarbonylphenoxy)-4H--1,2,6-thiadiazin-4-one]",1 (10-40),1 (10-40),1 (10-40),1 (10-40),42,54,69,88,0
"CC(=O)Nc1ccccc1Oc1nsnc(Cl)c1=O [Compound 43, 3-[(2-acetylamino)-phenoxy]-5-chloro-4H--1,2,6-thiadiazin-4-one]",4 (80-100),4 (80-100),4 (80-100),1 (10-40),0,0,0,0,0
"O=c1c(Cl)nsnc1Oc1c(Cl)cccc1Cl [Compound 18, 3-chloro-5-(2,6-dichlorophenoxy)-4H--1,2,6-thiadiazin-4-one]",4 (80-100),2 (40-60),0 (0-10),0 (0-10),41,50,75,75,0
"Cc1ccc(Oc2nsnc(Cl)c2=O)c(C)c1 [Compound 23, 3-chloro-5-(2,4-dimethylphenoxy)-4H--1,2,6-thiadiazin-4-one]",4 (80-100),0 (0-10),0 (0-10),0 (0-10),17,33,100,100,0
"CC(C)(C)c1ccc(Oc2nsnc(Cl)c2=O)cc1 [Compound 4, 3-chloro-5-(4-tert-butylphnoxy)-4H--1,2,6-thiadiazin-4-one]",4 (80-100),4 (80-100),0 (0-10),0 (0-10),0,0,0,8,95
"N#Cc1ccc(Oc2nsnc(Cl)c2=O)cc1 [Compound 10, 3-chloro-5-(4-cyanophenoxy)-4H--1,2,6-thiadiazin-4-one]",0 (0-10),0 (0-10),0 (0-10),0 (0-10),17,33,50,75,0
"O=c1c(Cl)nsnc1Oc1ccc(Cl)c(Cl)c1 [Compound 16, 3-chloro-5-(3,4-dichlorophenoxy)-4H--1,2,6-thiadiazin-4-one]",0 (0-10),0 (0-10),0 (0-10),0 (0-10),53,47,47,41,90
"Cc1cc(Oc2nsnc(Cl)c2=O)cc(C)c1Cl [Compound 59, 3-chloro-5-[(4-chloro-3,5-dimethyl)phenoxy]-4H--1,2,6-thiadiazin-4-one]",0 (0-10),0 (0-10),0 (0-10),0 (0-10),50,56,69,56,0
"CC(=O)Nc1ccc(Oc2nsnc(Cl)c2=O)cc1 [Compound 8, 5-(4-acetylaminophenoxy)-3-chloro-4H--1,2,6-thiadiazin-4-one]",4 (80-100),3 (60-80),0 (0-10),0 (0-10),3,41,31,31,0
"CCCCOc1ccc(Oc2nsnc(Cl)c2=O)cc1 [Compound 6, 3-chloro-5-(4-n-butoxyphenoxy)-4H--1,2,6-thiadiazin-4-one]",2 (40-60),1 (10-40),2 (40-60),0 (0-10),0,0,0,13,0
"CNC(=O)Nc1ccc(Oc2nsnc(Cl)c2=O)cc1 [Compound 28, 3-chloro-5-[4-(3-methylureido)-phenoxy]-4H--1,2,6-thiadiazin-4-one]",4 (80-100),4 (80-100),4 (80-100),1 (10-40),0,17,17,13,0
"O=c1c(Cl)nsnc1Oc1ccc(Cl)cc1Cl [Compound 17, 3-chloro-5-(2,4-dichlorophenoxy)-4H--1,2,6-thiadiazin-4-one]",0 (0-10),0 (0-10),0 (0-10),0 (0-10),50,75,100,100,0
"O=c1c(Cl)nsnc1Oc1c(Cl)cc(Cl)cc1Cl [Compound 30, 3-chloro-5-(2,4,6-trichlorophenoxy)-4H--1,2,6-thiadiazin-4-one]",3 (60-80),0 (0-10),0 (0-10),0 (0-10),52,81,90,100,0
"CS(=O)(=O)c1ccc(Oc2nsnc(Cl)c2=O)cc1 [Compound 41, 3-chloro-5-[(4-methylsulfonyl)phenoxy]-4H--1,2,6-thiadiazin-4-one]",4 (80-100),3 (60-80),0 (0-10),0 (0-10),16,16,42,68,0
"COc1ccc(Oc2nsnc(Cl)c2=O)cc1 [Compound 5, 3-chloro-5-(4-methoxyphenoxy)4H--1,2,6-thiadiazin-4-one]",4 (80-100),1 (10-40),0 (0-10),0 (0-10),18,35,6,71,75
"Cc1ccc(Cl)c(Oc2nsnc(Cl)c2=O)c1 [Compound 56, 3-chloro-5-[(2-chloro-5-methyl)phenoxy]-4H--1,2,6-thiadiazin-4-one]",0 (0-10),0 (0-10),0 (0-10),0 (0-10),70,100,100,100,0
"N#CCc1ccc(Oc2nsnc(Cl)c2=O)cc1 [Compound 46, 3-chloro-5-[(4-cyanomethyl)-phenoxy]4H--1,2,6-thiadiazin-4-one]",0 (0-10),0 (0-10),0 (0-10),0 (0-10),35,70,90,100,0
"O=C(Nc1ccccc1)Oc1ccc(Oc2nsnc(Cl)c2=O)cc1 [Compound 37, 3-chloro-5-[4-(phenylaminocarbonyloxy)phenoxy]-4H-1,2,6,-thiadiazin-4-one]",4 (80-100),3 (60-80),0 (0-10),2 (40-60),26,16,26,42,0
"O=C(Nc1ccccc1)Nc1ccc(Oc2nsnc(Cl)c2=O)cc1 [Compound 29, 3-chloro-5-[4-(3-phenylureido)-phenoxy]-4H--1,2,6-thiadiazin-4-one]",4 (80-100),4 (80-100),4 (80-100),2 (40-60),0,0,0,13,0
"Cc1cccc(C)c1Oc1nsnc(Cl)c1=O [Compound 24, 3-chloro-5-(2,6-dimethylphenoxy)-4H--1,2,6-thiadiazin-4-one]",3 (60-80),0 (0-10),0 (0-10),0 (0-10),33,83,100,100,95
"O=C(O)c1ccc(Oc2nsnc(Cl)c2=O)cc1 [Compound 50, 3-(4-carboxyphenoxy)-5-chloro-4H--1,2,6-thiadiazin-4-one]",4 (80-100),4 (80-100),4 (80-100),0 (0-10),25,38,63,100,90
"COc1ccc(Cl)c(Oc2nsnc(Cl)c2=O)c1 [Compound 51, 3-chloro-5-[(2-chloro-5-methoxy)phenoxy]-4H--1,2,6-thiadiazin-4-one]",3 (60-80),0 (0-10),0 (0-10),0 (0-10),60,85,100,100,0
"O=c1c(Cl)nsnc1Oc1ccc(O)cc1 [Compound 35, 3-chloro-5-(4-hydroxyphenoxy)-4H-1,2,6-thiadiazin-4-one]",2 (40-60),0 (0-10),0 (0-10),0 (0-10),30,35,60,80,0
